Experimental data published in patent publication US7994326B2 (Northwestern University, priority 2003, dated 2011).
Where two headings read alike, the source gives them in different places.

Experiments:
Format in all cases: biochemical
rat nNOS = target: T1, rat nNOS (Rattus norvegicus, UniProt P29476); experiment: NOS enzyme inhibitory assay (hemoglobin capture), nNOS; conditions: for IC50: rat nNOS, 10 μM L-arginine
T1 construct: made in house; host or cells: E. coli (plasmid pCWnNOS)
Protocol: (§1) All of the NOS isoforms used were recombinant enzymes overexpressed in E. coli from different sources. Nitric oxide formation from NOS was monitored by the hemoglobin capture assay as described in the literature.
After approximately 48 h of post-induction incubation in the dark at 25° C. the cells were pelleted at 5300×g, transferred to 50 mL conical tubes, and stored at −80° C.
nNOS purification: Cell pellets from 2.0 L of culture were resuspended in sonication Buffer A (50 mM Tris Base Buffer, pH 8.0, 10% glycerol), 2 mg/ml lysozyme. 0.5 mM L-arginine. 1 mM EDTA, 0.1 mM PMSF, 1 µg/ml antipain, and 1 μM each of leupeptin, […], and […]) and lysed by sonication. Centrifugation for 1 h at 100000×g yielded supernatant which contained nNOS active enzyme. The supernatant was brought to 2 mM CaCl2 and the protein was loaded onto a 15 ml calmodulin-Sepharose column equilibrated with Buffer A containing 2 mM CaCl2. The column was washed with 100 ml Buffer B (50 mM Hepes, 5 mM DTT, and […]) containing 2 mM CaCl2, 0.5 mM L-arginine, and 10 μM BH4, and eluted with 30 ml Buffer B supplemented with 0.3 M NaCl, 5 mM EGTA, 0.5 mM L-arginine, and 10 μM BH4. The protein was then loaded onto a 5 ml 2′,5′-ADP-Sepharose column equilibrated with Buffer B supplemented with 0.3 M NaCl, 0.5 mM L-arginine, and 10 μM BH4. The column was washed with 25 ml Buffer B containing 0.5 mM L-arginine and 10 μM BH4, and then 25 ml of Buffer B only supplemented with 10 μM BH4 (without L-arginine). Neuronal NOS was eluted with 20 ml Buffer B supplemented with 10 mM 2′(3′)-AMP, 10 μM BH4 and 0.3 M NaCl. The 20 ml eluent was then concentrated to 5 ml by ultrafiltration. The above concentration operation was repeated twice more with 10 ml Buffer B supplemented with 10 µM BH4 to give the purified neuronal NOS.
Nitric oxide formation from NOS was monitored by the hemoglobin capture assay as described previously.
(§2) The selectivity of an inhibitor is defined as the ratio of the respective Ki values.

murine iNOS = target: T2, murine iNOS (Mus musculus, UniProt P29477); experiment: NOS enzyme inhibitory assay (hemoglobin capture), iNOS; conditions: for IC50: murine iNOS, 10 μM L-arginine
T2 construct: made in house; host or cells: E. coli (plasmid pCWiNOS)
Excerpt: as §1
Enzyme inhibitory assay. All of the NOS isoforms used are recombinant enzymes overexpressed in E. coli from different sources.
iNOS expression: An overnight culture of pCWiNOS was used to inoculate (1:100) larger cultures of Terrific Broth media (12 g/L tryptone, 24 g/L yeast extract, 4 mL/L glycerol, 17 mM KH2PO4, and 72 mM K2HPO4) containing 50 μg/mL ampicillin and 34 μg/mL chloramphenicol at 37° C. At an OD600 of ˜0.5, the culture was cooled to 25° C. and induced by the addition of 1 mM IPTG (final concentration). After approximately 24 h of growth at 25° C., the cells were pelleted at 5300×g, transferred to 50 mL conical tubes, and stored at −80° C.
iNOS purification: Cell pellets from 1.0 L of culture were resuspended in sonication buffer (50 mM Hepes, pH 7.4, 10% glycerol, 10 μg/mL benzamidine, 5 μg/mL leupeptin, 0.2 mM of PMSF, and 1 μg/mL each of pepstatin, chymostatin, and antipain) and lysed by sonication. Centrifugation for 20 min at 13000×g yielded supernatant which contained iNOS active enzyme. iNOS supernatant was loaded onto 1 g of a 2′,5′-ADP-Sepharose 4B resin column. The column was then washed with 20 ml iNOS purification buffer (10 mM K2HPO4, 10% glycerol, 0.5 mM L-arginine, pH 7.4) and 10 μM BH4. Inducible NOS was eluted with 30 ml iNOS purification buffer supplemented with 10 mM 2′(3′)-AMP, 10 μM BH4, and 0.3 M NaCl. The eluent was concentrated to 5 ml by ultrafiltration. The above concentration operation was repeated three times more with 10 ml Hepes buffer supplemented with 10 μM BH4, to give purified inducible NOS.
(§3) Nitric oxide formation from NOS was monitored by the hemoglobin capture assay as described previously. (Hevel, J. M.; Marletta, M. A. Nitric Oxide Synthase Assays. Methods Enzymol. 1994, […], 250-258).
as §2

bovine eNOS = target: T3, bovine eNOS (Bos taurus, UniProt P29473); experiment: NOS enzyme inhibitory assay (hemoglobin capture), eNOS; conditions: for IC50: bovine eNOS, 10 μM L-arginine, * = no inhibition observed up to the concentration listed
T3 construct: made in house; host or cells: E. coli (plasmid Bov-eNOSpCW)
Protocol: as §1
Expression of bovine eNOS: An overnight culture of Bov-eNOSpCW was used to inoculate 0.5 liter (in a 2.8-liter Fernbach flask) of modified TB (20 g of yeast extract, 10 g of bacto-tryptone, 2.65 g of KH2PO4, 4.33 g of Na2HPO4 and 4 ml of glycerol per liter) containing ampicillin ([…]) and chloramphenicol ([…]). The cultures were grown to an OD600 of z0.8 at 22° C. (200 rpm) and induced with 0.5 mM IPTG. One hour before IPTG induction, d-aminolevulinic acid (0.5 mM final) was added and, at the time of IPTG induction, riboflavin ([…]) and ATP (1 mM final) were also added. After induction, the flasks were kept in the dark at 22° C. (200 rpm). The cells were harvested 48 h after induction, and the cell pellet was frozen at −80° C. until purification was carried out.
Purification of bovine eNOS. The purification was typically carried out with eNOS from 2 liters of E. coli culture. The eNOS protein was purified using a modification of the published protocol for nNOS (14). The cells were resuspended in buffer C [50 mM Tris-Cl, pH 7.8, 1 mM EDTA, 1 mM DTT, 10% glycerol (v/v), 150 mM NaCl, 0.1 mM phenylmethylsulfonyl fluoride, […]], lysed by pulsed sonication and then centrifuged to sediment the cell debris. The supernatant was applied to a 2′,5′-ADP Sepharose 4B column equilibrated in buffer D [50 mM Tris-Cl, pH 7.8, 0.1 mM EDTA, 0.1 mM dithiothreitol, 150 mM NaCl, 10% glycerol (v/v)]. The column was washed with 20 column volumes of buffer B and again with 20 column volumes of buffer B containing 600 mM NaCl. Finally, protein was eluted with buffer B containing 600 mM NaCl and 5 mM 2′-AMP. The fractions were screened for absorption in the Soret region (A400) and hemoprotein-containing fractions were pooled and concentrated (Centriprep 50, Amicon). Repeated dilution/concentration [50 mM Tris-Cl, pH 7.8, 0.1 mM EDTA, 0.1 mM dithiothreitol, 10% glycerol (vol/vol)] was used to reach a final concentration of 150 mM NaCl and commensurately reduce the 2′-AMP content. […] The purified eNOS is stored in the presence of 1 mM L-arginine.
eNOS washing: eNOS contains a significant amount of L-arginine, which will interfere with the enzyme assay. The L-arginine can be removed by several dilution and concentration steps using an Amico concentrator. The dilution buffer is 10 ml Tris-HCl 50 mM containing 0.1 mM EDTA, 400 mM NaCl, 10% glycerol and 1 mM beta-mercaptoethanol. The above dilution and concentration operation was repeated three times to give purified eNOS.
as §3, §2

[1] = Table 1a, apparent Ki calculated from IC50, Km […], read-out: calc. Ki nNOS
[2] = Table 1a, apparent Ki calculated from IC50, Km […], read-out: calc. Ki iNOS
[3] = Table 1a, apparent Ki calculated from IC50, Km 1.7 μM, read-out: calc. Ki eNOS
[4] = Table 1b, ratio of Ki values eNOS/nNOS
[5] = Table 1b, ratio of Ki values iNOS/nNOS

Compound	Selectivity n/e (rat nNOS; Table 1a, Ki(eNOS)/Ki(nNOS))	Selectivity n/i (rat nNOS; Table 1a, Ki(iNOS)/Ki(nNOS))	Ki (rat nNOS; [1])	IC50 (rat nNOS; Table 1a)	Ki (murine iNOS; [2])	IC50 (murine iNOS; Table 1a)	Ki (bovine eNOS; [3])	IC50 (bovine eNOS; Table 1a)	Selectivity n/e (rat nNOS; [4])	Selectivity n/i (rat nNOS; [5])	Ki (rat nNOS; Table 1b, read-out: Ki nNOS)	Ki (murine iNOS; Table 1b, read-out: Ki iNOS)	Ki (bovine eNOS; Table 1b, read-out: Ki eNOS)
Nc1cccc(CC2CNCC2NCC(N)Cc2ccccc2)n1 (racemic) [Compound P-32]	>632	129.09	2.3 µM	20 µM	297 µM	655 µM	> 1450 µM	> 10000 µM					
Nc1cccc(C[C@H]2CNC[C@H]2NCCNCc2ccccc2)n1 (racemic) [Compound P-33]	>8619.5	136.36	1.18 µM	10.2 µM	161 µM	355 µM	> 10200 µM	> 70000 µM					
Nc1cccc(CC2CNCC2NC2CCNC2)n1 (racemic) [Compound P-34]	192.54	138.06	1.26 µM	11 µM	174 µM	384 µM	243 µM	1670 µM					
Nc1cccc(CC2CNCC2NC2CCNC2)n1 (racemic) [Compound P-35]	311.85	146.75	1.36 µM	11.8 µM	200 µM	440 µM	424 µM	2920 µM					
Cc1cc(N)nc(C[C@H]2CNC[C@H]2NCCN)c1.Cl.Cl.Cl.Cl (racemic) [Compound P-46]	2462.2	58	0.095 µM	0.83 µM	5.5 µM	12.1 µM	234 µM	1610 µM					
Cc1cc(N)nc(C[C@H]2CNC[C@@H]2NCCN)c1.Cl.Cl.Cl.Cl (racemic) [Compound P-47]	430.7	52.5	0.61 µM	5.34 µM	32 µM	70.6 µM	263 µM	1810 µM					
Cc1cc(N)nc(C[C@H]2CNC[C@H]2NCCNCc2ccc(C(F)(F)F)cc2)c1.Cl.Cl.Cl.Cl (racemic) [Compound P-50]									428.4	71.5	0.197 µM	14.1 µM	84.4 µM
Cc1cc(N)nc(C[C@H]2CNC[C@H]2NCCNCc2ccc(F)cc2)c1.Cl.Cl.Cl.Cl (racemic) [Compound P-51]									904.5	55.4	0.144 µM	7.97 µM	130 µM
